In ChEMBL document CHEMBL4507256 (2021):

Assays:
[1] = molecular target: Mitogen-activated protein kinase kinase kinase 12 (Homo sapiens) (UniProt Q12852); conditions: Compound concentration 1000.0 nM
[2] = tested on: Epidermal growth factor receptor (Homo sapiens), P00533 [UNDEFINED MUTATION]; conditions: Compound concentration 1000.0 nM
[3] = tested on: Epidermal growth factor receptor (Homo sapiens), P00533 [UNDEFINED MUTATION]; conditions: Compound concentration 1000.0 nM; remark: listed apart in the source
[4] = molecular target: Focal adhesion kinase 1 (Homo sapiens) (UniProt Q05397); conditions: Compound concentration 1000.0 nM
[5] = tested on: Tyrosine-protein kinase ABL1 (Homo sapiens), P00519 [Q252H]; conditions: Compound concentration 1000.0 nM
[6] = molecular target: Tyrosine-protein kinase Fyn (Homo sapiens) (UniProt P06241); conditions: Compound concentration 1000.0 nM
[7] = molecular target: Dual specificity mitogen-activated protein kinase kinase 7 (Homo sapiens) (UniProt O14733); conditions: Compound concentration 1000.0 nM
[8] = molecular target: Vascular endothelial growth factor receptor 3 (Homo sapiens) (UniProt P35916); conditions: Compound concentration 1000.0 nM
[9] = molecular target: Tyrosine-protein kinase JAK1 (Homo sapiens) (UniProt P23458); conditions: Compound concentration 1000.0 nM
[10] = molecular target: Mitogen-activated protein kinase 9 (Homo sapiens) (UniProt P45984); conditions: Compound concentration 1000.0 nM
[11] = molecular target: Receptor tyrosine-protein kinase erbB-4 (Homo sapiens) (UniProt Q15303); conditions: Compound concentration 1000.0 nM
[12] = molecular target: Mitogen-activated protein kinase kinase kinase kinase 3 (Homo sapiens) (UniProt Q8IVH8); conditions: Compound concentration 1000.0 nM
[13] = molecular target: Dual specificity mitogen-activated protein kinase kinase 4 (Homo sapiens) (UniProt P45985); conditions: Compound concentration 1000.0 nM
[14] = molecular target: cAMP-dependent protein kinase catalytic subunit PRKX (Homo sapiens) (UniProt P51817); conditions: Compound concentration 1000.0 nM
[15] = molecular target: Tyrosine-protein kinase Mer (Homo sapiens) (UniProt Q12866); conditions: Compound concentration 1000.0 nM
[16] = molecular target: MAP kinase-activated protein kinase 5 (Homo sapiens) (UniProt Q8IW41); conditions: Compound concentration 1000.0 nM
[17] = molecular target: Serine/threonine-protein kinase MRCK alpha (Homo sapiens) (UniProt Q5VT25); conditions: Compound concentration 1000.0 nM
[18] = molecular target: Epithelial discoidin domain-containing receptor 1 (Homo sapiens) (UniProt Q08345); conditions: Compound concentration 1000.0 nM
[19] = molecular target: Serine/threonine-protein kinase STK11 (Homo sapiens) (UniProt Q15831); conditions: Compound concentration 1000.0 nM
[20] = molecular target: Phosphatidylinositol 4-phosphate 5-kinase type-1 alpha (Homo sapiens) (UniProt Q99755); conditions: Compound concentration 1000.0 nM
[21] = molecular target: Tyrosine-protein kinase receptor TYRO3 (Homo sapiens) (UniProt Q06418); conditions: Compound concentration 1000.0 nM
[22] = molecular target: Fibroblast growth factor receptor 2 (Homo sapiens) (UniProt P21802); conditions: Compound concentration 1000.0 nM
[23] = molecular target: Testis-specific serine/threonine-protein kinase 1 (Homo sapiens) (UniProt Q9BXA7); conditions: Compound concentration 1000.0 nM
[24] = tested on: Mast/stem cell growth factor receptor Kit (Homo sapiens), P10721 [D816H]; conditions: Compound concentration 1000.0 nM
[25] = molecular target: Tyrosine-protein kinase Lck (Homo sapiens) (UniProt P06239); conditions: Compound concentration 1000.0 nM
[26] = molecular target: Receptor-interacting serine/threonine-protein kinase 2 (Homo sapiens) (UniProt O43353); conditions: Compound concentration 1000.0 nM
[27] = molecular target: cAMP-dependent protein kinase catalytic subunit beta (Homo sapiens) (UniProt P22694); conditions: Compound concentration 1000.0 nM
[28] = molecular target: ALK tyrosine kinase receptor (Homo sapiens) (UniProt Q9UM73); conditions: Compound concentration 1000.0 nM
[29] = molecular target: Calcium/calmodulin-dependent protein kinase type 1B (Homo sapiens) (UniProt Q6P2M8); conditions: Compound concentration 1000.0 nM
[30] = molecular target: Serine/threonine-protein kinase PAK 1 (Homo sapiens) (UniProt Q13153); conditions: Compound concentration 1000.0 nM
[31] = molecular target: Cyclin-dependent kinase 2 homolog (Plasmodium falciparum (isolate 3D7)) (UniProt P61075); conditions: Compound concentration 1000.0 nM
[32] = molecular target: Dual specificity protein kinase CLK3 (Homo sapiens) (UniProt P49761); conditions: Compound concentration 1000.0 nM
[33] = molecular target: Mitogen-activated protein kinase 7 (Homo sapiens) (UniProt Q13164); conditions: Compound concentration 1000.0 nM
[34] = molecular target: 5-hydroxytryptamine receptor 2A (Homo sapiens) (UniProt P28223); conditions: Compound concentration 10.0 uM
[35] = molecular target: GABA-A receptor; anion channel (Rattus norvegicus) (UniProt O09028+P15431+P18506+P18508+P19969+P20236+P23574+P23576+P28471+P28473+P30191+P62813+P63079+P63138+Q91ZM7+Q9ES14); conditions: Compound concentration 10.0 uM
[36] = tested on: Epidermal growth factor receptor (Homo sapiens), P00533 [G719C]; conditions: Compound concentration 1000.0 nM
[37] = molecular target: cGMP-dependent protein kinase 2 (Homo sapiens) (UniProt Q13237); conditions: Compound concentration 1000.0 nM
[38] = molecular target: Tyrosine-protein kinase CSK (Homo sapiens) (UniProt P41240); conditions: Compound concentration 1000.0 nM
[39] = molecular target: Serine/threonine-protein kinase PAK 4 (Homo sapiens) (UniProt O96013); conditions: Compound concentration 1000.0 nM
[40] = molecular target: Tyrosine-protein kinase receptor UFO (Homo sapiens) (UniProt P30530); conditions: Compound concentration 1000.0 nM
[41] = molecular target: Phosphorylase b kinase regulatory subunit alpha, liver isoform (Homo sapiens) (UniProt P46019); conditions: Compound concentration 1000.0 nM
[42] = molecular target: Casein kinase I isoform epsilon (Homo sapiens) (UniProt P49674); conditions: Compound concentration 1000.0 nM
[43] = molecular target: Mitogen-activated protein kinase 3 (Homo sapiens) (UniProt P27361); conditions: Compound concentration 1000.0 nM

Sequence of Mitogen-activated protein kinase kinase kinase 12 (Homo sapiens) (Q12852 whole entry): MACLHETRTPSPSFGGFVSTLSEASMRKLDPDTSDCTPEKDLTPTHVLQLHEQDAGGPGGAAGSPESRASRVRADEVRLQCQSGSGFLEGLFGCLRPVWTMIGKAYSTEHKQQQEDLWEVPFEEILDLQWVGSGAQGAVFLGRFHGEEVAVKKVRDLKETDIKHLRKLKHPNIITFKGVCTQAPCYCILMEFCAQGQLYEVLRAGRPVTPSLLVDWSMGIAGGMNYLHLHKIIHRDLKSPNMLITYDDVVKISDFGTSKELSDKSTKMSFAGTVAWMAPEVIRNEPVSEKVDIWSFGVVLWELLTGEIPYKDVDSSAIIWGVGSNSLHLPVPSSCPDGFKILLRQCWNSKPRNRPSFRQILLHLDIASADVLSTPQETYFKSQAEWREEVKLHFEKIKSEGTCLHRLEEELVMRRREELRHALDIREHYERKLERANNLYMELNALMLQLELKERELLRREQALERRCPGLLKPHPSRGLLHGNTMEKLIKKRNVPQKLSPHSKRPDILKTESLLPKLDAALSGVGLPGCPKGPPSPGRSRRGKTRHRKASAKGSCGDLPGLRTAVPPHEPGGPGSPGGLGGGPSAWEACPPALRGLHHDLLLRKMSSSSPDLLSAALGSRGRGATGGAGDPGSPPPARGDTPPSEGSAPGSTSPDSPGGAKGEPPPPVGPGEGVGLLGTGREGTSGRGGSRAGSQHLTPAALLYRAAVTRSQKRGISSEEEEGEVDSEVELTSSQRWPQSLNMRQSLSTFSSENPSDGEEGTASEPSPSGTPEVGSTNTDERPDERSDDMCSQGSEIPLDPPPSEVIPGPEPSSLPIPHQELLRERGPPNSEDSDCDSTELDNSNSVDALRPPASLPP
Sequence of Casein kinase I isoform epsilon (Homo sapiens) (P49674 whole entry, looked up, canonical isoform): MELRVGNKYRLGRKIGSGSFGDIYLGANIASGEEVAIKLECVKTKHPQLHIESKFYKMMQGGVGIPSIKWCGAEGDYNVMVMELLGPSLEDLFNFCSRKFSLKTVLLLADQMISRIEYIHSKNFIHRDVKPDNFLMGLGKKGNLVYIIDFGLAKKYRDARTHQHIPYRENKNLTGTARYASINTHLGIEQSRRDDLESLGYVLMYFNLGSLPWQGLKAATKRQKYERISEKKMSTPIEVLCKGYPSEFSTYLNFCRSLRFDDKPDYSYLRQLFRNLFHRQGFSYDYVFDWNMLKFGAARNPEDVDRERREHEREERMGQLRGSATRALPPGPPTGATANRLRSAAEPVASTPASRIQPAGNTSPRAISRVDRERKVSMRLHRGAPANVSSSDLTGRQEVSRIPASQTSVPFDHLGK
Sequence of Serine/threonine-protein kinase PAK 1 (Homo sapiens) (Q13153 whole entry): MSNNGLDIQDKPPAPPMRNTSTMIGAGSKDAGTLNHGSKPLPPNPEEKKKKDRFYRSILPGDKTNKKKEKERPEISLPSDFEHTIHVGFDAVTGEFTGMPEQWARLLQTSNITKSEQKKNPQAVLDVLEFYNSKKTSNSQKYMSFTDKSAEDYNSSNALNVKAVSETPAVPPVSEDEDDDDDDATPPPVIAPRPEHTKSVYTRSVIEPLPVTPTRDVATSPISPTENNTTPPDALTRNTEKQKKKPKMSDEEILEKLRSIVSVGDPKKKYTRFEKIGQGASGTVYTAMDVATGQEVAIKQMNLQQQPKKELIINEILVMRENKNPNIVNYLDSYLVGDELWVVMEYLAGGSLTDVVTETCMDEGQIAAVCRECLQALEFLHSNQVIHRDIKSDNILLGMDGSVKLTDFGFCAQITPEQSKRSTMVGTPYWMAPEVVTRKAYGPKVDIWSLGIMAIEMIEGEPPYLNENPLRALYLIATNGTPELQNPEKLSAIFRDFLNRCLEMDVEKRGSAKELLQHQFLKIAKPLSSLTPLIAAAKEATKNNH
Sequence of Dual specificity mitogen-activated protein kinase kinase 7 (Homo sapiens) (O14733 whole entry): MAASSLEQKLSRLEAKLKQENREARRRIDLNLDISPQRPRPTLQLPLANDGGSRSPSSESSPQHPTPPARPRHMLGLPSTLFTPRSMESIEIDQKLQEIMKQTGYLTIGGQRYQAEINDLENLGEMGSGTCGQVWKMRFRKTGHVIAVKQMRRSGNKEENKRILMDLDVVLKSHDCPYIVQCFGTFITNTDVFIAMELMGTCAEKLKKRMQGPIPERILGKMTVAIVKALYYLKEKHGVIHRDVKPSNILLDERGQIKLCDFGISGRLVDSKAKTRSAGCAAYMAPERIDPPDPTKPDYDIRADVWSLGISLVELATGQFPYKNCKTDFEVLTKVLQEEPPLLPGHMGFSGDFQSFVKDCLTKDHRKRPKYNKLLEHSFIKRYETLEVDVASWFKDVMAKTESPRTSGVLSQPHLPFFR
Sequence of Receptor tyrosine-protein kinase erbB-4 (Homo sapiens) (Q15303 whole entry): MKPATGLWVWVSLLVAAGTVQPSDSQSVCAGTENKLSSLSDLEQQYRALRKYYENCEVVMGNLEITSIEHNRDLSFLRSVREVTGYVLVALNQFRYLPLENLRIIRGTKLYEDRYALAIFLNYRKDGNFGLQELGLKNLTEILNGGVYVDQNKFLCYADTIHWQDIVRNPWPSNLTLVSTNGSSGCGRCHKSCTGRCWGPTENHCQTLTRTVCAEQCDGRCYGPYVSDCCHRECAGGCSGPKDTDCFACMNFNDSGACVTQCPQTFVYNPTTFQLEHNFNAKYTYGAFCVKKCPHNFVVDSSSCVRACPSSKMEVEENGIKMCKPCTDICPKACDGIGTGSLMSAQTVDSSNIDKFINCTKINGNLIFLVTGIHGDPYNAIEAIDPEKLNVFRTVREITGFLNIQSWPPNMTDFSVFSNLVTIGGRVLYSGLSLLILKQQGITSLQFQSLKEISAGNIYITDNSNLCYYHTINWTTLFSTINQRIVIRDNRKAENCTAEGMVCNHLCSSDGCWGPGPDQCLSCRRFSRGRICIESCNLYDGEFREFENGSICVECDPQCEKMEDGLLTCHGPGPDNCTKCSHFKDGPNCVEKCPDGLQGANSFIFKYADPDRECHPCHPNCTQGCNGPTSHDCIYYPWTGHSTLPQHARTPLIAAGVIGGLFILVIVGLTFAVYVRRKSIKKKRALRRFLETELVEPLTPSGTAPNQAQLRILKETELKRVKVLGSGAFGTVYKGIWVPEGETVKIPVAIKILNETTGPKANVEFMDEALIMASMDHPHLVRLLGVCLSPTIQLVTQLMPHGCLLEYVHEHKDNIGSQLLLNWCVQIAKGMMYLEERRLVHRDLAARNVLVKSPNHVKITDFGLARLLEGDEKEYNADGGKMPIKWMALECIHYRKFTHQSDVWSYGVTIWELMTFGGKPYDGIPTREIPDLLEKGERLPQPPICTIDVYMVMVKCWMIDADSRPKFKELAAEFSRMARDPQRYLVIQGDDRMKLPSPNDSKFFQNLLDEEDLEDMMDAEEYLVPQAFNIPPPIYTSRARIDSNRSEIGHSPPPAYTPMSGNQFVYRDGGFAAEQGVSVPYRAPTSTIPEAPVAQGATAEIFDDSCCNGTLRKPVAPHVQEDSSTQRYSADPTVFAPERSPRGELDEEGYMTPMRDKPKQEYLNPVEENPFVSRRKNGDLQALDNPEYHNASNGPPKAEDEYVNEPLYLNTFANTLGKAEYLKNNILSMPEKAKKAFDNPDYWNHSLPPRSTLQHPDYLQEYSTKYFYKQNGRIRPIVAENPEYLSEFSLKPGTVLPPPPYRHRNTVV
Sequence of cGMP-dependent protein kinase 2 (Homo sapiens) (Q13237 whole entry): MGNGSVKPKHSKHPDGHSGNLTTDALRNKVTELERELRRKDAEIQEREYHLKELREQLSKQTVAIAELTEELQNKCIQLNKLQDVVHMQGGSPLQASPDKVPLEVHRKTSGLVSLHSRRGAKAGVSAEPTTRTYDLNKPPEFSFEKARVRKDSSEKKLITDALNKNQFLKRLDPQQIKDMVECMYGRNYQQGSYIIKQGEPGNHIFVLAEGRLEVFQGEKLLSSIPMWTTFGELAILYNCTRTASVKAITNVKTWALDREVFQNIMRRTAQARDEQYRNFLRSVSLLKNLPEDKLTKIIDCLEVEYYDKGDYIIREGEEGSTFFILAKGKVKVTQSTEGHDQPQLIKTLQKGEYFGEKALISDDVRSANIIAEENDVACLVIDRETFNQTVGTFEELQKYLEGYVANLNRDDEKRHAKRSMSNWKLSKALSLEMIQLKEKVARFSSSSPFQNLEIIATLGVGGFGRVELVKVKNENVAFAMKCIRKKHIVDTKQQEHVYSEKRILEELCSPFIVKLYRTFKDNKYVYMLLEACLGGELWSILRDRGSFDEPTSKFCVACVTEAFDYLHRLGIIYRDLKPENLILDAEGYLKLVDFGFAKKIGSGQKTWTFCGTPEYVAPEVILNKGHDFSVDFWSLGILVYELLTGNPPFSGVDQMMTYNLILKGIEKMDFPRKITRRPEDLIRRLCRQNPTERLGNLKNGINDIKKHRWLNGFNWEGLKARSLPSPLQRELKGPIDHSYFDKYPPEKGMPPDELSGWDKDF
Sequence of 5-hydroxytryptamine receptor 2A (Homo sapiens) (P28223 whole entry): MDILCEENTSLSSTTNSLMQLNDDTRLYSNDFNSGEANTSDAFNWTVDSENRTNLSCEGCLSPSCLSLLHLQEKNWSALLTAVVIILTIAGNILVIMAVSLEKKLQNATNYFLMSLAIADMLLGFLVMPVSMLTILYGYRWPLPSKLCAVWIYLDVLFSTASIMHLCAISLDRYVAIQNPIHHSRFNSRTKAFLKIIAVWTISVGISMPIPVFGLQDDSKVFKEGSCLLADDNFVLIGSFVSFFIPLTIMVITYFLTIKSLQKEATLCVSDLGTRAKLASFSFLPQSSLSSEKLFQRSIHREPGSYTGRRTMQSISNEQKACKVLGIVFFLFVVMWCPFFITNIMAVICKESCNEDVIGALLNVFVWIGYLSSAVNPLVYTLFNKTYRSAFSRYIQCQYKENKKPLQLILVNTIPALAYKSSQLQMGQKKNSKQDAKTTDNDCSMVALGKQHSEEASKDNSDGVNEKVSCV

CCC(=N\O)/C(C)=C/c1ccc(F)cc1 [A-079]
inactive: residual activity [1] 76% | residual activity [2] 67% | residual activity [3] 65% | residual activity [4] 82% | residual activity [5] 90% | residual activity [6] 100% | residual activity [7] 79% | residual activity [8] 100% | residual activity [9] 88% | residual activity [10] 92% | residual activity [11] 66% | residual activity [12] 100% | residual activity [13] 75% | residual activity [14] 96% | residual activity [15] 100% | residual activity [16] 91% | residual activity [17] 100% | residual activity [18] 89% | residual activity [19] 100% | residual activity [20] 97% | residual activity [21] 100% | residual activity [22] 93% | residual activity [23] 82% | residual activity [24] 65% | residual activity [25] 82% | residual activity [26] 91% | residual activity [27] 89% | residual activity [28] 87% | residual activity [29] 82% | residual activity [30] 88% | residual activity [31] 84% | residual activity [32] 73% | residual activity [33] 88% | inhibition [34] 21.7% | inhibition [35] 21.5% | residual activity [36] 64% | residual activity [37] 79% | residual activity [38] 100% | residual activity [39] 100% | residual activity [40] 100% | residual activity [41] 90% | residual activity [42] 99% | residual activity [43] 69%

CCC(=N\O)/C(C)=C/c1ccc(F)c(C)c1 [A-226]
inactive: residual activity [1] 100% | residual activity [2] 65% | residual activity [3] 73% | residual activity [4] 100% | residual activity [5] 100% | residual activity [6] 72% | residual activity [7] 100% | residual activity [8] 80% | residual activity [9] 100% | residual activity [10] 100% | residual activity [11] 98% | residual activity [12] 98% | residual activity [13] 100% | residual activity [14] 94% | residual activity [15] 100% | residual activity [16] 100% | residual activity [17] 100% | residual activity [18] 91% | residual activity [19] 100% | residual activity [20] 100% | residual activity [21] 100% | residual activity [22] 100% | residual activity [23] 90% | residual activity [24] 100% | residual activity [25] 87% | residual activity [26] 65% | residual activity [27] 100% | residual activity [28] 97% | residual activity [29] 100% | residual activity [30] 70% | residual activity [31] 100% | residual activity [32] 100% | residual activity [33] 100% | inhibition [34] 40.8% | inhibition [35] 20.3% | residual activity [36] 83% | residual activity [37] 97% | residual activity [38] 96% | residual activity [39] 76% | residual activity [40] 100% | residual activity [41] 100% | residual activity [42] 92% | residual activity [43] 100%
